Laboratory results taken from publication PMC10385865, “Synthesis and Anticancer Activity of Novel Dual Inhibitors of Human Protein Kinases CK2 and PIM-1” (Pharmaceutics, 2023).

Assays:
CK2 = target: CK2; set-up: method as in PMID 33807474; settings: Figure 1, representative CK2 inhibitors; cited from earlier work
CK2-α = target: CK2-α; set-up: method as in PMID 23360763, PMID 24442476, PMID 34200807; settings: Figure 1, dual CK2/PIM-1 inhibitors; cited from earlier work
PIM1 = target: PIM1; set-up: method as in PMID 23360763, PMID 24442476, PMID 34200807; settings: Figure 1, dual CK2/PIM-1 inhibitors; cited from earlier work
human CK2α = target: T1, human CK2α (Homo sapiens, UniProt P68400); assay: P81 filter isotopic (radiometric) kinase assay, CK2 catalytic subunit; assay type: biochemical; settings: substrate peptide […], Ki from IC50 by Cheng–Prusoff
T1 construct: made in house
T1 sequence (P68400 whole entry): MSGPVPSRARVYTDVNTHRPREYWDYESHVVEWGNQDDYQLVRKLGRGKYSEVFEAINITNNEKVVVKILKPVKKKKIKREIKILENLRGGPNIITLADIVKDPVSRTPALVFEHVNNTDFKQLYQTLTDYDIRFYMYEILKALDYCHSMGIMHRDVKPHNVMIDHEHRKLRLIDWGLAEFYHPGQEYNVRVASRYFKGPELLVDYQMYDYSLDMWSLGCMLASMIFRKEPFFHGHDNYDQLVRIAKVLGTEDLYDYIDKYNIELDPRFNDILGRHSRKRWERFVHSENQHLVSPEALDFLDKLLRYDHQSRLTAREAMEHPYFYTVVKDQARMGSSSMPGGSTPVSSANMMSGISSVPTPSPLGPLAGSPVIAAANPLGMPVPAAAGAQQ
Description: (§1) The obtained compounds were tested for their inhibitory activity toward human CK2α, human CK2 holoenzyme, and PIM-1 using a P81 filter isotopic assay as described previously. […] The experimental data were fitted to the sigmoidal dose–response equation, i.e., (variable slope) Y = Bottom + (Top-Bottom)/(1 + 10^((LogIC50−X)∗HillSlope), in GraphPad Prism (Prism 9, v. 9.0.1).
(§2) Inhibition of the human CK2 catalytic subunit (CK2α), CK2 holoenzyme (CK2α2β2), and PIM-1 by the newly obtained compounds was evaluated using a radiometric assay (Table 1, Figure S2). The synthetic peptide […] was used as the substrate of CK2, and peptide […] was used as the substrate of PIM-1. The values of the inhibition constant (Ki) were calculated using the Cheng–Prusoff equation: Ki = IC50/(1 + [S]/Km).

[1] = target: T2, human CK2 holoenzyme (CK2α2β2) (Homo sapiens, UniProt P68400); assay: P81 filter isotopic (radiometric) kinase assay, CK2 holoenzyme; assay type: biochemical; settings: substrate peptide […], Ki from IC50 by Cheng–Prusoff
T2 construct: made in house
T2 sequence (P68400 whole entry): as above
T2 sequence (P67870 whole entry partner): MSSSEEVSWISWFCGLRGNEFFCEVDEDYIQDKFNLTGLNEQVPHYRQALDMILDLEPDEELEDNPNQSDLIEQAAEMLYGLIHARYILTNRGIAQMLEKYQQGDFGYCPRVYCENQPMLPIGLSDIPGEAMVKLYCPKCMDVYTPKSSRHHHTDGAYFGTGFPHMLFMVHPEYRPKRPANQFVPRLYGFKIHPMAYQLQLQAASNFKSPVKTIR
Description: as §1, §2

PIM-1 = target: T3, PIM-1 (Homo sapiens, UniProt P11309); assay: P81 filter isotopic (radiometric) kinase assay, PIM-1; assay type: biochemical; settings: substrate peptide […], Ki from IC50 by Cheng–Prusoff
T3 construct: made in house
T3 sequence (P11309 whole entry): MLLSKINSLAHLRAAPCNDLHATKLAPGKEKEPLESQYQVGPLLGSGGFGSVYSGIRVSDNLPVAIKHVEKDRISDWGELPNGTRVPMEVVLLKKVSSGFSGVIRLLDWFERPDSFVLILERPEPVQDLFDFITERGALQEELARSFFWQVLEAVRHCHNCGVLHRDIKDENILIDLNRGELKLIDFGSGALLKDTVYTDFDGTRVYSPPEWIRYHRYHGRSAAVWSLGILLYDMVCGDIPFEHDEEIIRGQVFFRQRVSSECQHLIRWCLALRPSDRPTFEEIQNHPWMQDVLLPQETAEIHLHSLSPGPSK
Description: as §1, §2

[2] = test system: CCRF-CEM (acute lymphoblastic leukemia); assay: MTT-based viability assay, CCRF-CEM; assay type: cell-based, human; settings: for IC50: Homo sapiens, CCRF-CEM, MTT, 48 h, read-out: IC50 CCRF-CEM; for SI (selectivity index) CCRF-CEM: IC50 Vero/IC50 cancer cells
Description: (§3) After incubation with the tested compounds, an MTT test was performed as described previously. Optical densities were measured at 570 nm using a BioTek microplate reader (BioTek Instruments, Inc., Winooski, VT, USA). All measurements were carried out in a minimum of three biological replicates.
(§4) . The IC50 values describing the half-maximal effective concentration of each tested compound were calculated and are summarized in Table 2. […].

[3] = test system: K-562 (chronic myelogenous leukemia); assay: MTT-based viability assay, K-562; assay type: cell-based, human; settings: for IC50: Homo sapiens, K562, MTT, 48 h, read-out: IC50 K-562; for SI (selectivity index) K-562: IC50 Vero/IC50 cancer cells
Description: as §3, §4

MCF-7 (breast carcinoma) = assay: MTT-based viability assay, MCF-7; assay type: cell-based, human; settings: for IC50: Homo sapiens, MCF7, MTT, 48 h, read-out: IC50 MCF-7; for SI (selectivity index) MCF-7: IC50 Vero/IC50 cancer cells
Description: as §3, §4

Vero cells = assay: MTT-based viability assay, non-cancerous Vero cells; assay type: cell-based, Cercopithecus aethiops; settings: Chlorocebus sabaeus, MTT, 48 h, read-out: IC50 Vero
Description: as §3, §4

Compound | Ki (human CK2α) | Ki [1] | Ki (PIM-1) | IC50 [2] | IC50 [3] | IC50 (MCF-7 (breast carcinoma)) | Ki (CK2) | Ki (CK2-α) | Ki (PIM1) | SI (selectivity index) CCRF-CEM [2] | SI (selectivity index) K-562 [3] | SI (selectivity index) MCF-7 (MCF-7 (breast carcinoma)) | IC50 (Vero cells)
O=c1[nH]c2c(Br)c(Br)c(Br)c(Br)c2[nH]1 [Compound K32, 4,5,6,7-tetrabromo-2,3-dihydro-1H-1,3-benzodiazol-2-one] | – | – | – | – | – | – | 0.15 µM | – | – | – | – | – | –
Cc1nc2c(Br)c(Br)c(Br)c(Br)c2n1CCCO [N^1-PrOH-2-MeTBBi, 3-(4,5,6,7-tetrabromo-2-methyl-1H-1,3-benzodiazol-1-yl)propan-1-ol] | – | – | – | – | – | – | – | 0.05 µM | 0.15 µM | – | – | – | –
OC[C@H]1O[C@@H](n2cnc3cc(Cl)c(Cl)cc32)[C@H](O)[C@@H]1O [DRB, 5,6-dichloro-1-β-D-ribofuranosylbenzimidazole] | – | – | – | – | – | – | 23 µM | – | – | – | – | – | –
4,5,6,7-tetrabromo-2,3-dihydro-1H-1,3-benzodiazol-2-one [Compound K37] | – | – | – | – | – | – | 0.07 µM | – | – | – | – | – | –
OC[C@H]1O[C@@H](n2cnc3c(Br)c(Br)c(Br)c(Br)c32)C[C@@H]1O [TDB (K164), 1-(β-D-2′-deoxyribofuranosyl)-4,5,6,7-tetrabromo-1H-benzimidazole] | – | – | – | – | – | – | – | – | 0.04 µM | – | – | – | –
Brc1c(Br)c(Br)c2[nH]cnc2c1Br [TBBi, 4,5,6,7-tetrabromo-1H-benzimidazole] | – | – | – | – | – | – | 0.3 µM | – | – | – | – | – | –

The next lines start with results.

Ki (human CK2α) | Ki [1] | Ki (PIM-1) | IC50 [2] | IC50 [3] | IC50 (MCF-7 (breast carcinoma)) | Compound | Ki (CK2) | Ki (CK2-α) | Ki (PIM1) | SI (selectivity index) CCRF-CEM [2] | SI (selectivity index) K-562 [3] | SI (selectivity index) MCF-7 (MCF-7 (breast carcinoma)) | IC50 (Vero cells)
0.256 µM | 0.072 µM | 0.071 µM | 17.4 ± 0.27 µM | 40 ± 7.45 µM | 15.1 ± 0.39 µM | CN(CCO)c1nc2c(Br)c(Br)c(Br)c(Br)c2[nH]1 [Compound 8, 2-[Methyl(4,5,6,7-tetrabromo-1H-benzimidazol-2-yl)amino]ethanol] | – | – | – | 0.92 | 0.40 | 1.06 | 16.1 ± 0.27 µM
0.151 µM | 0.089 µM | 0.073 µM | 33.8 ± 0.26 µM | 41.5 ± 8.45 µM | 17.2 ± 0.39 µM | OCC(O)CNc1nc2c(Br)c(Br)c(Br)c(Br)c2[nH]1 (racemic) [rac-11, 3-[(4,5,6,7-Tetrabromo-1H-benzimidazol-2-yl)amino]propane-1,2-diol] | – | – | – | 1.23 | 1.00 | 2.41 | 41.53 ± 0.1 µM
0.394 µM | 0.104 µM | 0.089 µM | 22.31 ± 0.1 µM | 39.6 ± 8.11 µM | 16.1 ± 0.19 µM | C[C@@H](O)CNc1nc2c(Br)c(Br)c(Br)c(Br)c2[nH]1 [(R)-5, (2R)-1-[(4,5,6,7-tetrabromo-1H-benzimidazol-2-yl)amino]propan-2-ol] | – | – | – | 1.27 | 0.71 | 1.76 | 28.3 ± 0.43 µM
0.156 µM | 0.114 µM | 0.082 µM | 25.6 ± 0.54 µM | 33.7 ± 4.92 µM | 18.2 ± 0.3 µM | OCCCNc1nc2c(Br)c(Br)c(Br)c(Br)c2[nH]1 [Compound 7, 3-[(4,5,6,7-Tetrabromo-1H-benzimidazol-2-yl)amino]propan-1-ol] | – | – | – | 1.15 | 0.87 | 1.62 | 29.46 ± 0.12 µM
0.296 µM | 0.127 µM | 0.064 µM | 21.7 ± 0.86 µM | 38.7 ± 8.08 µM | 16.9 ± 0.3 µM | CC(O)CNc1nc2c(Br)c(Br)c(Br)c(Br)c2[nH]1 (racemic) [rac-5, 1-[(4,5,6,7-Tetrabromo-1H-benzimidazol-2-yl)amino]propan-2-ol] | – | – | – | 1.04 | 0.58 | 1.34 | 22.58 ± 0.13 µM
1.67 µM | 0.605 µM | 0.267 µM | 13.6 ± 0.84 µM | 11.6 ± 2.85 µM | 10.8 ± 0.23 µM | CCN(CC)CC(O)CNc1nc2c(Br)c(Br)c(Br)c(Br)c2[nH]1 (racemic) [rac-9, 1-(Diethylamino)-3-[(4,5,6,7-tetrabromo-1H-benzimidazol-2-yl)amino]propan-2-ol] | – | – | – | 0.88 | 1.03 | 1.11 | 12 ± 0.21 µM
0.139 µM | 0.124 µM | 0.093 µM | 24.47 ± 0.21 µM | 38.1 ± 5.56 µM | 16.6 ± 0.23 µM | OCC(CO)Nc1nc2c(Br)c(Br)c(Br)c(Br)c2[nH]1 [Compound 10, 2-[(4,5,6,7-Tetrabromo-1H-benzimidazol-2-yl)amino]propane-1,3-diol] | – | – | – | 1.03 | 0.66 | 1.51 | 25.19 ± 0.1 µM
0.271 µM | 0.167 µM | 0.099 µM | 23.2 ± 4.01 µM | 39.3 ± 9.05 µM | 16.6 ± 0.3 µM | C[C@H](O)CNc1nc2c(Br)c(Br)c(Br)c(Br)c2[nH]1 [(S)-5, (2S)-1-[(4,5,6,7-tetrabromo-1H-benzimidazol-2-yl)amino]propan-2-ol] | – | – | – | 1.11 | 0.64 | 1.52 | 25.2 ± 0.54 µM
